Patent publication US8263755B2, “Synthesis of compounds useful as modulators of amyloid-beta production” (Satori Pharmaceuticals, Inc., priority 2006, dated 2012)

How the values were obtained:
amyloid-β (1-42) peptide = assay: amyloid-β protein profile by immunoprecipitation and mass spectrometry (IP-MS), protocol of Wang et al.; assay type: cell-based; conditions: in vitro
Experimental: (§1) Compounds of the present invention were assayed to determine their effect on the total ration of amyloid-β (1-42) peptide in vitro using an assay protocol substantially similar to that described by Wang et al., J. Biol. Chem. 1996, 50:31894-31902, The Profile of Soluble Amyloid β Protein in Cultured Cell Media, the entirety of which is hereby incorporated herein by reference. This assay quantifies amyloid-β protein using immunoprecipitation and mass spectrometry (IP-MS).

[1] = system: 7W cells (APPwt) and 7PA2 cells (APPV717F); assay: method of Wang et al. in 7W cells (APPwt) and 7PA2 cells (APPV717F); assay type: cell-based
Experimental: as §1
Compound 6 was also assayed according to the method described in Wang et al., in 7W cells (APPwt) and 7PA2 cells (APPV717F). The APP717 mutations increase the relative amount of amyloid-β (1-42) peptide. In this assay, it was shown that compound 6 reduces amyloid-β (1-42) peptide while increasing amyloid-β (1-39) peptide.

[2] = stability experiments in solution; assay type: physicochemical
Experimental: However, it was stable in slightly acidic solution. Therefore, 2609-165-7 was re-processed on the Luna C8 column using 70% MeOH/30% water containing 0.05% AcOH as eluent to give 3.4 mg of compound 6 (2609-172-11).

CC(=O)O[C@@H]([C@H]1C[C@@H](C)C2=C(O1)[C@H](O)[C@@]1(C)[C@@H]3CC[C@H]4C(C)(C)[C@@H](O[C@@H]5OC[C@@H](O)[C@H](O)[C@H]5O)CC[C@@]45C[C@@]35CC[C@]21C)C(C)(C)O [Compound 6, 24-O-Acetylhydroshengmanol 3-β-D-xylopyranoside (delta-16,17)-enol ether]
effect on amyloid-β (1-37) peptide (amyloid-β (1-42) peptide): increasing | effect on amyloid-β (1-39) peptide (amyloid-β (1-42) peptide): increasing | effect on amyloid-β (1-42) peptide (amyloid-β (1-42) peptide): reduced | effect on amyloid-β (1-39) peptide [1]: increasing | effect on amyloid-β (1-42) peptide [1]: reduces | stability in solution ([2]; MeOH solution which is slightly basic): deacetylation occurred | stability in solution ([2]; slightly acidic solution): stable
